Experimental data as given in patent US6632806B1, “Neurologically-active compounds” (The University of Sydney, priority 1997, dated 2003).
Where “and” joins values, the source holds several entries; their conditions need not be identical. Equal entries are not always repeated. Where two headings read alike, the source gives them in different places. Marks after values point to notes of the source that are not given here.

Tests used:
[1] = biological target: GABAC receptors; conditions: Woodward et al, 1993, cited from earlier work; for Kb: read-out: KB (antagonist)
[2] = biological target: human r1 receptors (GABAC receptors) (Homo sapiens, UniProt P24046); test: Two-electrode voltage clamp recording of human r1 GABAC receptors expressed in Xenopus oocytes; conditions: for IC50: IC50 (concentration that inhibits 50% of the response produced by 1 μM GABA), 1 μM GABA; for Mode of antagonism: Schild analysis; for Effect as agonist or antagonist at GABAC receptors: screened at 100 μM; for Activation of the receptor by compound alone / Effect on GABA response when co-applied with GABA (1 μM): 100 μM, FIG. 1
Description: The plasmid was linearized with XbaI and cRNA made using the “Message Machine” kit from Ambion Inc. (Austin, Tex., USA). 50 ng of cRNA was injected into defolliculated Stage V Xenopus oocytes. Two to seven days later, receptor activity was measured by two-electrode voltage clamp recording, using a Geneclamp 500 amplifier (Axon Instruments Inc., Foster City, Calif., USA) and a MacLab 2e recorder (ADInstruments, Sydney, NSW, Australia). […] For receptor activation measurements, the indicated concentrations of agonist and antagonist were added to ND96.

[3] = system: T1, GABAA; conditions: Na-independent [3H]GABA binding (Johnston et al, 1978); read-out: GABAA receptor affinity, IC50; cited from earlier work
T1 construct: Activity at GABAA; other: Woodward et al, 1993; GABAA Kb; other: Ragozzino et al (1996); other: PMPA; source not given, column fo

[4] = system: T1, GABAA; conditions: [3H]muscimol binding (Froestl et al, 1995a; 1995b), cited from earlier work; for IC50: read-out: GABAA receptor affinity, IC50
[5] = system: NMDA, benzodiazepine, quisqualate, kainate, muscarinic cholinergic, adrenergic, serotoninergic and histaminergic receptors; conditions: 1 mM; cited from earlier work
[6] = system: GABAA; conditions: cited from earlier work
[7] = biological target: GABAB (Rattus norvegicus, UniProt Q9Z0U4); design: from tissue; host or cells: rat cortical membranes / neocortical slices; values largely from the literature; conditions: [3H]CGP27492 binding (Froestl et al; Bittiger et al; Olpe et al); read-out: GABAB receptor affinity, IC50; cited from earlier work
Sequence of GABAB (Q9Z0U4 17-960 limits assumed): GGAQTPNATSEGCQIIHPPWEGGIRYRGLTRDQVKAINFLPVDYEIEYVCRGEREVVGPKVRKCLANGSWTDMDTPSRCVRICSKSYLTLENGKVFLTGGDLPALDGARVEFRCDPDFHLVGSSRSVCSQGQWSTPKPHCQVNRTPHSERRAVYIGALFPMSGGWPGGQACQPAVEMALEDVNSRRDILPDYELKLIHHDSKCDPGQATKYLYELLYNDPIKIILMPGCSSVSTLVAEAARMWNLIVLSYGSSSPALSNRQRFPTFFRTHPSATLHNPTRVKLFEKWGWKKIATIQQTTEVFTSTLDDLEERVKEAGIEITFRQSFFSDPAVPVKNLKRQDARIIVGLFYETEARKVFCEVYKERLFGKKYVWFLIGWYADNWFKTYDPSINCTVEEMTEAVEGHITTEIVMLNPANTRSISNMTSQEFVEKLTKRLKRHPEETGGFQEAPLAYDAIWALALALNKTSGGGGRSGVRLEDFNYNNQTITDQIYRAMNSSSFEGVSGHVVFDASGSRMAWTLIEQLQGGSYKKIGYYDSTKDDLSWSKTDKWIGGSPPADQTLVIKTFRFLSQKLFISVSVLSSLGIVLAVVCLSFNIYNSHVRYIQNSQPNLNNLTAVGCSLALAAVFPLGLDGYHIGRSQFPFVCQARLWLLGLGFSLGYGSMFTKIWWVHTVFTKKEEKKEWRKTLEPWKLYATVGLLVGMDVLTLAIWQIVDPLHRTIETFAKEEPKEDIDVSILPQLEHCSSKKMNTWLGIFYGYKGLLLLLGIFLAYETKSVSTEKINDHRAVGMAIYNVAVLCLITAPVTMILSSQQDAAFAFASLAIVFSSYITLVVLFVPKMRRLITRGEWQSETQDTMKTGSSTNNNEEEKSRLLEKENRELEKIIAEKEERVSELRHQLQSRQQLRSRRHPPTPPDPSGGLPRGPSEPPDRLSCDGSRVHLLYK
Sequence of GABAB (O88871 41-940 partner): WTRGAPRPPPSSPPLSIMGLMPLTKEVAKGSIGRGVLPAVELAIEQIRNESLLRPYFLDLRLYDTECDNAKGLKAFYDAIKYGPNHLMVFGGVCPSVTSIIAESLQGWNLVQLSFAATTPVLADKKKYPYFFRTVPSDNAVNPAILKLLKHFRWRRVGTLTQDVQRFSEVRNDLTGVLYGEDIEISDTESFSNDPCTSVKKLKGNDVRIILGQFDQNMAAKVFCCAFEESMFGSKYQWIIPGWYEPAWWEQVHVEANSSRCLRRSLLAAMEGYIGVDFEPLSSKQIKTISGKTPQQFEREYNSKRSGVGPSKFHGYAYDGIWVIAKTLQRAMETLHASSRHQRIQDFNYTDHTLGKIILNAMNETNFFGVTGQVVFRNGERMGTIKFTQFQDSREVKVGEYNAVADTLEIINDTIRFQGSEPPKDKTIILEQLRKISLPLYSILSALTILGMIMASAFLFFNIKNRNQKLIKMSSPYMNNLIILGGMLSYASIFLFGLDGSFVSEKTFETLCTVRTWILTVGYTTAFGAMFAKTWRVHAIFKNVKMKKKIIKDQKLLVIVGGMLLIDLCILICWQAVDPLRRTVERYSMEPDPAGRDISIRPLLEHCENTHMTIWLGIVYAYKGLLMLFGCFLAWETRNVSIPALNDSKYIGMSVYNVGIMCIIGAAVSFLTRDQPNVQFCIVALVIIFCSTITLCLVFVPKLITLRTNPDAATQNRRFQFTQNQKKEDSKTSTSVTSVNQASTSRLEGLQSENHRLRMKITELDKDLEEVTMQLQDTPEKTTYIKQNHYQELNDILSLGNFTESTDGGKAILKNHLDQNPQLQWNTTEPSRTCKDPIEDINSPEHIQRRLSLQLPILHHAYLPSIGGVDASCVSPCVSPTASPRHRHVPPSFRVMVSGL

Sequence of human r1 receptors (GABAC receptors) (P24046 22-479): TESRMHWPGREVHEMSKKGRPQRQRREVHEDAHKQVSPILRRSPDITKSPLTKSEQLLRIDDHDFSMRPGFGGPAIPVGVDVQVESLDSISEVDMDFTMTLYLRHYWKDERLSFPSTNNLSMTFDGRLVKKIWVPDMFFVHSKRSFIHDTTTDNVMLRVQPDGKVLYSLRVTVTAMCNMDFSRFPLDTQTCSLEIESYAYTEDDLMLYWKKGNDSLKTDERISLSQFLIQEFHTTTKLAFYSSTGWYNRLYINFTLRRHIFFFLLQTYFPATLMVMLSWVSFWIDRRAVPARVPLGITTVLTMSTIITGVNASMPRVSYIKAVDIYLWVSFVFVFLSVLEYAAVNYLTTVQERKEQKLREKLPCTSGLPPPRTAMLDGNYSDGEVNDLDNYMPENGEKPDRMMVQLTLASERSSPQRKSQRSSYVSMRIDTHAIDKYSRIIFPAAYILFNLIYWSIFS

| SMILES | Kb [1] [µM] | Activation of Cl− channel current by compound on its own [2] | nH (Hill Coefficient) [2] | Kb [2] [µM] | Slope of Schild Plot [2] | IC50 [2] | Mode of antagonism [2] | nH of GABA curve in the presence of antagonist ([2]; [Antagonist] 10 μM) | nH of GABA curve in the presence of antagonist ([2]; [Antagonist] 30 μM) | nH of GABA curve in the presence of antagonist ([2]; [Antagonist] 100 μM) | also measured |
| --- | --- | --- | --- | --- | --- | --- | --- | --- | --- | --- | --- |
| NCCCP(=O)(O)O [3-APA, 3-aminopropylphosphonic acid] | 10 |  |  |  |  |  |  |  |  |  |  |
| NC/C=C\C(=O)O [CACA, cis-4-aminocrotonic acid] |  | activated the Cl^− channel | 2.2 ± 0.3 |  |  |  |  |  |  |  | EC50 ([2]; EC50 (effective dose that activates 50% of the maximal current), r1 receptors in Xenopus oocytes, clamped at −60 mV): 37.4 µM and 37 µM; Maximal dose current as % of the maximal GABA activated current ([2]; maximal dose): 75%; Kd ([1]; Johnston, 1996b, read-out: KD (agonist)): 74 µM; IC50 [3]: 25 µM |
| NCCC[PH](=O)O [CGP27492, 3-aminopropylphosphinic acid] | 1.8 | did not activate any current on their own | 1.9 ± 0.2 | 3.2 ± 1 | 0.99 | 2.47 ± 0.04 µM | competitive antagonists | 2.3 ± 0.1 | 2.4 ± 0.3 | 2.5 ± 0.2 | IC50 [4]: 1.7 µM |
| CP(=O)(O)CCCN [CGP35024, (3-aminopropyl)methylphosphinic acid] | 0.8 | did not activate any current on their own | 1.8 ± 0.1 | 0.58 ± 0.14 | 1.14 | 0.75 ± 0.07 µM | competitive antagonists | 2.2 ± 0.2 | 1.9 ± 0.2 |  | GABAA receptor affinity, IC50 [4]: inactive at 10^k; nH of GABA curve in the presence of antagonist ([2]; [Antagonist] 3 μM): 2.3 ± 0.1 |
| CCOC(OCC)P(=O)(O)CCCN [CGP35348, 3-aminopropyl(diethoxymethyl)phosphinic acid] |  |  |  |  |  |  |  |  |  |  | Effect as agonist or antagonist at GABAC receptors [2]: no effect as either agonists or antagonists |
| CCCCP(=O)(O)CCCN [CGP36742, (3-aminopropyl)-n-butylphosphinic acid] |  |  |  |  |  |  |  |  |  |  | Effect at other receptor types [5]: no effect; IC50 [6]: 500 µM |
| NC/C=C/[PH](=O)O [CGP38593, [(E)-3-aminopropen-1-yl]phosphinic acid] |  | did not activate any current on their own | 1.8 ± 0.4 | 15.5 ± 1.7 | 0.95 | 7.7 µM and 7.68 µM | competitive antagonists |  | 2.7 ± 0.1 | 3.0 ± 0.1 | IC50 [4]: 6.8 µM; Activation of the receptor by compound alone [2]: do not activate the receptor; Effect on GABA response when co-applied with GABA (1 μM) [2]: the GABA response is blocked or reduced; nH of GABA curve in the presence of antagonist ([2]; [Antagonist] 60 μM): 2.5 ± 0.4 |
| CP(=O)(O)/C=C/CN [CGP44530, [(E)-3-Aminopropen-1-yl]methylphosphinic acid] |  | did not activate any current on their own | 2.4 ± 0.5 | 8.6 ± 1.6 | 1.01 | 5.5 µM and 5.53 µM | competitive antagonists | 2.6 ± 0.2 | 3.0 ± 0.1 | 3.7 ± 0.4 | GABAA receptor affinity, IC50 [4]: inactive at 100; Activation of the receptor by compound alone [2]: do not activate the receptor; Effect on GABA response when co-applied with GABA (1 μM) [2]: the GABA response is blocked or reduced; IC50 [7]: 0.65 µM |
| NCCCP(=O)(O)CC1CCCCC1 [CGP46381, 3-aminopropyl(cyclohexylmethyl)phosphinic acid] |  |  |  |  |  |  |  |  |  |  | Effect as agonist or antagonist at GABAC receptors [2]: no effect as either agonists or antagonists |
